Measured values published in ChEMBL document CHEMBL1275354, “Anticonvulsant activity of 2,4(1H)-diarylimidazoles in mice and rats acute seizure models” (Bioorg Med Chem, 2010).
The source made the active and inactive calls. No cut-off for these calls is given here.

Columns and labels:
[1] = system: Mus musculus; experiment: Neurotoxicity in ip dosed albino CF1 mouse assessed as minimum dose required to cause toxicity after 0.5 hrs by rotarod test; assay type: organism-based; conditions: in vivo
[2] = system: Mus musculus; experiment: Anticonvulsant activity in albino CF1 mouse assessed as protection against maximal electroshock-induced seizures at 70 mg/kg, ip after 0.25 hrs; assay type: functional, organism-based; set-up: dose 70 mg/kg
[3] = system: Mus musculus; experiment: Neurotoxicity in albino CF1 mouse assessed as minimal motor impairment at 30 mg/kg, ip after 0.5 hrs by rotarod test; assay type: toxicity, organism-based; set-up: dose 30 mg/kg, route intraperitoneal; conditions: in vivo
[4] = system: Mus musculus; experiment: Anticonvulsant activity in albino CF1 mouse assessed as protection against maximal electroshock-induced seizures at 100 mg/kg, ip after 0.5 hrs; assay type: functional, organism-based; set-up: dose 100 mg/kg
[5] = system: Mus musculus; experiment: Anticonvulsant activity against subcutaneous metrazole-induced seizures in ip dosed albino CF1 mouse assessed as minimum effective dose after 4 hrs; assay type: functional; conditions: albino CF1, 4 h, read-out: MED
[6] = system: Mus musculus; experiment: Anticonvulsant activity in albino CF1 mouse assessed as protection against subcutaneous metrazole-induced seizures at 70 mg/kg, ip after 0.25 hrs; assay type: functional, organism-based; set-up: dose 70 mg/kg
[7] = system: Mus musculus; experiment: Neurotoxicity in albino CF1 mouse assessed as minimal motor impairment at 70 mg/kg, ip after 0.25 hrs by rotarod test; assay type: toxicity, organism-based; set-up: dose 70 mg/kg, route intraperitoneal; conditions: in vivo
[8] = system: Mus musculus; experiment: Neurotoxicity in albino CF1 mouse assessed as minimal motor impairment at 350 mg/kg, ip after 0.25 hrs by rotarod test; assay type: toxicity, organism-based; set-up: dose 350 mg/kg, route intraperitoneal; conditions: in vivo
[9] = target: Sodium channel protein type 2 subunit alpha (Homo sapiens, UniProt Q99250); experiment: Inhibition of human NaV1.2 expressed in HEK cells at -60 mV holding potential by patch clamp recording technique; assay type: cell-based, HEK293
[10] = system: Mus musculus; experiment: Anticonvulsant activity in albino CF1 mouse assessed as protection against maximal electroshock-induced seizures at 35 mg/kg, ip after 0.25 hrs; assay type: functional, organism-based; set-up: dose 35 mg/kg
[11] = species: Mus musculus; experiment: Protective index, ratio of TD50 for albino CF1 mouse by rotarod test to ED50 for albino CF1 mouse by maximal electroshock seizures test; assay type: functional
[12] = system: Mus musculus; experiment: Anticonvulsant activity ip dosed albino CF1 mouse assessed as protection against subcutaneous metrazole-induced seizures after 0.25 hrs; assay type: functional; conditions: albino CF1, 0.25 h
[13] = system: Mus musculus; experiment: Protective index, ratio of TD50 for albino CF1 mouse by rotarod test to ED50 for albino CF1 mouse by subcutaneous metrazol seizures test; assay type: functional
[14] = system: Mus musculus; experiment: Neurotoxicity in ip dosed albino CF1 mouse assessed as minimal motor impairment after 0.25 hrs by rotarod test; assay type: toxicity, organism-based; conditions: in vivo
[15] = system: Rattus norvegicus; experiment: Neurotoxicity in albino Sprague-Dawley rat assessed as minimal motor impairment at 30 mg/kg, po by rotarod test; assay type: toxicity, organism-based; set-up: dose 30 mg/kg, route oral; conditions: in vivo
[16] = system: Mus musculus; experiment: Anticonvulsant activity ip dosed albino CF1 mouse assessed as protection against maximal electroshock-induced seizures after 0.25 hrs; assay type: functional
[17] = system: Rattus norvegicus; experiment: Anticonvulsant activity in albino Sprague-Dawley rat assessed as protection against maximal electroshock-induced seizures at 30 mg/kg, po after 0.25 hrs; assay type: functional, organism-based; set-up: dose 30 mg/kg
[18] = system: Rattus norvegicus; experiment: Anticonvulsant activity in albino Sprague-Dawley rat assessed as protection against maximal electroshock-induced seizures at 30 mg/kg, po after 0.5 hrs; assay type: functional, organism-based; set-up: dose 30 mg/kg
[19] = system: Rattus norvegicus; experiment: Anticonvulsant activity in albino Sprague-Dawley rat assessed as protection against maximal electroshock-induced seizures at 30 mg/kg, po after 2 hrs; assay type: functional, organism-based; set-up: dose 30 mg/kg
[20] = system: Rattus norvegicus; experiment: Anticonvulsant activity in albino Sprague-Dawley rat assessed as protection against maximal electroshock-induced seizures at 30 mg/kg, po after 4 hrs; assay type: functional, organism-based; set-up: dose 30 mg/kg
[21] = system: Mus musculus; experiment: Neurotoxicity in albino CF1 mouse assessed as minimal motor impairment at 30 mg/kg, ip after 4 hrs by rotarod test; assay type: toxicity, organism-based; set-up: dose 30 mg/kg, route intraperitoneal; conditions: in vivo
[22] = system: Mus musculus; experiment: Neurotoxicity in albino CF1 mouse assessed as minimal motor impairment at 100 mg/kg, ip after 0.5 hrs by rotarod test; assay type: toxicity, organism-based; set-up: dose 100 mg/kg, route intraperitoneal; conditions: in vivo
[23] = system: Mus musculus; experiment: Neurotoxicity in albino CF1 mouse assessed as minimal motor impairment at 100 mg/kg, ip after 4 hrs by rotarod test; assay type: toxicity, organism-based; set-up: dose 100 mg/kg, route intraperitoneal; conditions: in vivo
[24] = system: Mus musculus; experiment: Neurotoxicity in albino CF1 mouse assessed as minimal motor impairment at 300 mg/kg, ip after 0.5 hrs by rotarod test; assay type: toxicity, organism-based; set-up: dose 300 mg/kg, route intraperitoneal; conditions: in vivo
[25] = system: Mus musculus; experiment: Neurotoxicity in albino CF1 mouse assessed as minimal motor impairment at 300 mg/kg, ip after 4 hrs by rotarod test; assay type: toxicity, organism-based; set-up: dose 300 mg/kg, route intraperitoneal; conditions: in vivo
[26] = system: Mus musculus; experiment: Anticonvulsant activity in albino CF1 mouse assessed as protection against maximal electroshock-induced seizures at 300 mg/kg, ip after 0.5 hrs; assay type: functional, organism-based; set-up: dose 300 mg/kg
[27] = system: Mus musculus; experiment: Anticonvulsant activity in albino CF1 mouse assessed as protection against maximal electroshock-induced seizures at 300 mg/kg, ip after 4 hrs; assay type: functional, organism-based; set-up: dose 300 mg/kg
[28] = system: Mus musculus; experiment: Anticonvulsant activity in albino CF1 mouse assessed as protection against subcutaneous metrazole-induced seizures at 30 mg/kg, ip after 0.5 hrs; assay type: functional, organism-based; set-up: dose 30 mg/kg
[29] = system: Mus musculus; experiment: Anticonvulsant activity in albino CF1 mouse assessed as protection against subcutaneous metrazole-induced seizures at 30 mg/kg, ip after 4 hrs; assay type: functional, organism-based; set-up: dose 30 mg/kg
[30] = system: Mus musculus; experiment: Anticonvulsant activity in albino CF1 mouse assessed as protection against subcutaneous metrazole-induced seizures at 100 mg/kg, ip after 0.5 hrs; assay type: functional, organism-based; set-up: dose 100 mg/kg
[31] = system: Mus musculus; experiment: Anticonvulsant activity in albino CF1 mouse assessed as protection against subcutaneous metrazole-induced seizures at 100 mg/kg, ip after 4 hrs; assay type: functional, organism-based; set-up: dose 100 mg/kg
[32] = system: Mus musculus; experiment: Anticonvulsant activity in albino CF1 mouse assessed as protection against subcutaneous metrazole-induced seizures at 300 mg/kg, ip after 0.5 hrs; assay type: functional, organism-based; set-up: dose 300 mg/kg
[33] = system: Mus musculus; experiment: Anticonvulsant activity in albino CF1 mouse assessed as protection against subcutaneous metrazole-induced seizures at 300 mg/kg, ip after 4 hrs; assay type: functional, organism-based; set-up: dose 300 mg/kg
[34] = system: Mus musculus; experiment: Neurotoxicity in albino CF1 mouse assessed as minimal motor impairment at 30 to 300 mg/kg, po after 4 hrs by rotarod test; assay type: toxicity, organism-based; set-up: dose 30-300 mg/kg, route oral; conditions: in vivo
[35] = system: Mus musculus; experiment: Anticonvulsant activity in albino CF1 mouse assessed as protection against maximal electroshock-induced seizures at 30 mg/kg, ip after 0.5 hrs; assay type: functional, organism-based; set-up: dose 30 mg/kg
[36] = system: Mus musculus; experiment: Anticonvulsant activity in albino CF1 mouse assessed as protection against maximal electroshock-induced seizures at 30 mg/kg, ip after 4 hrs; assay type: functional, organism-based; set-up: dose 30 mg/kg
[37] = system: Mus musculus; experiment: Neurotoxicity in ip dosed albino CF1 mouse assessed as minimum dose required to cause toxicity after 4 hrs by rotarod test; assay type: organism-based; conditions: in vivo
[38] = system: Mus musculus; experiment: Anticonvulsant activity against maximal electroshock-induced seizures in ip dosed albino CF1 mouse assessed as minimum effective dose after 0.5 hrs; assay type: functional; conditions: read-out: MED
[39] = system: Mus musculus; experiment: Anticonvulsant activity against maximal electroshock-induced seizures in ip dosed albino CF1 mouse assessed as minimum effective dose after 4 hrs; assay type: functional; conditions: read-out: MED
[40] = system: Mus musculus; experiment: Anticonvulsant activity against subcutaneous metrazole-induced seizures in ip dosed albino CF1 mouse assessed as minimum effective dose after 0.5 hrs; assay type: functional; conditions: albino CF1, 0.5 h, read-out: MED
[41] = system: Mus musculus; experiment: Neurotoxicity in albino CF1 mouse assessed as minimal motor impairment at 30 to 300 mg/kg, ip after 0.5 hrs by rotarod test; conditions: in vivo

Sequence of Sodium channel protein type 2 subunit alpha (Q99250 whole entry): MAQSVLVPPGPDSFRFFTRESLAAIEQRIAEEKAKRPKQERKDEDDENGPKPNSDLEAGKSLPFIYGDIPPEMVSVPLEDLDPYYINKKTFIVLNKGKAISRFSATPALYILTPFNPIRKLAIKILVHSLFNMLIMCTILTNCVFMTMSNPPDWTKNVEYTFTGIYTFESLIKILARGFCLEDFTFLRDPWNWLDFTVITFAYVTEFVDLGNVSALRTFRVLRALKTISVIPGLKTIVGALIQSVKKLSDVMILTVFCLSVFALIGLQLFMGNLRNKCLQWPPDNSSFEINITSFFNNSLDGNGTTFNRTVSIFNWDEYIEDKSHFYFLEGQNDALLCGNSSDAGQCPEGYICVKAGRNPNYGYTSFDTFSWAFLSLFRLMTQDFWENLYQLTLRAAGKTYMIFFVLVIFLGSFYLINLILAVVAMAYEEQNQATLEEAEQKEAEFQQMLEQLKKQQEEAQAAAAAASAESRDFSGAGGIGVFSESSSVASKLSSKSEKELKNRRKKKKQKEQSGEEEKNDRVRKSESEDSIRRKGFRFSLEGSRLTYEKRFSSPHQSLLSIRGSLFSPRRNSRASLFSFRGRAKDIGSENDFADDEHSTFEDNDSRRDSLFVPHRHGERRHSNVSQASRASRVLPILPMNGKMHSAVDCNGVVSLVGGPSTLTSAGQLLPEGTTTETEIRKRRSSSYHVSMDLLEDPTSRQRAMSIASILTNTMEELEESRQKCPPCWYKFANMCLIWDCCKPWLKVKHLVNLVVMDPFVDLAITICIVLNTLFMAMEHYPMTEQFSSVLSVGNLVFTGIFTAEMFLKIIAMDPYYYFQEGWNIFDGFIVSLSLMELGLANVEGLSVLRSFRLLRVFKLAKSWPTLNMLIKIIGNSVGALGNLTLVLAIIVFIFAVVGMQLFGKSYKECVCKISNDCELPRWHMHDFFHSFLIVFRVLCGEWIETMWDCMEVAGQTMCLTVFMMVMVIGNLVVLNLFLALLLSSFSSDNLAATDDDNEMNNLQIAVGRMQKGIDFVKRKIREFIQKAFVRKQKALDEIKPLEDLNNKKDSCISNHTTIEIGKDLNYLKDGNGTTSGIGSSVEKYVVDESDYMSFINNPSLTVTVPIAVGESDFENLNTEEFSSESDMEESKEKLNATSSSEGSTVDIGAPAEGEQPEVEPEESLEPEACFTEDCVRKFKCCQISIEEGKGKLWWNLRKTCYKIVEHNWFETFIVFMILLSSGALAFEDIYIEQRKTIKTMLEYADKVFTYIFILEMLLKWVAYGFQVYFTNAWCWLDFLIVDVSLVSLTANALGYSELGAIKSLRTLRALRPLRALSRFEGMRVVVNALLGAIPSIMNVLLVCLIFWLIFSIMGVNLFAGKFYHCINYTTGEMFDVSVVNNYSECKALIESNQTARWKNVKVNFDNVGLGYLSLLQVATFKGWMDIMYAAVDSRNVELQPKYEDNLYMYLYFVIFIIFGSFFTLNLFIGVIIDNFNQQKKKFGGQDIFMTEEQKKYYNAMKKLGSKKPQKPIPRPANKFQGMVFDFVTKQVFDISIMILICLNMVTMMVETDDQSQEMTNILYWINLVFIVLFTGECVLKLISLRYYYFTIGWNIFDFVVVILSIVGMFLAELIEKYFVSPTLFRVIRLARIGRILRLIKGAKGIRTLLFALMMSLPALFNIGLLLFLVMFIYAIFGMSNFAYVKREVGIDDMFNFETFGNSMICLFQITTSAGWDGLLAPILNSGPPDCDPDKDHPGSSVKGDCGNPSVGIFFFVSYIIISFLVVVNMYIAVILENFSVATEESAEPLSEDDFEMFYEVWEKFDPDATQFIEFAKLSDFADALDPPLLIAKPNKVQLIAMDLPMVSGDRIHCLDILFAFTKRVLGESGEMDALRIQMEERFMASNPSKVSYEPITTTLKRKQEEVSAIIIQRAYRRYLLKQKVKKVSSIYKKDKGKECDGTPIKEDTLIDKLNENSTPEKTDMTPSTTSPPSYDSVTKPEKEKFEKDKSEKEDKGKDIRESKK

COc1ccc(-c2nc(-c3ccccc3)c[nH]2)cc1
MED [1]: 100 mg/kg
Activity [2]: Active
Activity [3]: Non-toxic
Activity [4]: Active
minimal effective dose [5]: > 300 mg/kg
Activity [6]: inactive
Activity [7]: Non-toxic
Activity [8]: Toxic
IC50 [9]: 21.4 µM
Activity [10]: inactive
PI [11]: 4.3
ED50 [12]: 142 mg/kg
PI [13]: 1.4
TD50 [14]: 200.8 mg/kg
Activity [15]: Non-toxic
ED50 [16]: 46.8 mg/kg
Activity [17]: inactive
Activity [18]: inactive
Activity [19]: inactive
Activity [20]: inactive
Activity [21]: Non-toxic
Activity [22]: Non-toxic
Activity [23]: Non-toxic
Activity [24]: Toxic
Activity [25]: Toxic
Activity [26]: Active
Activity [27]: Active
Activity [28]: inactive
Activity [29]: inactive
Activity [30]: inactive
Activity [31]: inactive
Activity [32]: Active
Activity [33]: inactive
Activity [34]: Non-toxic
Activity [35]: inactive
Activity [36]: inactive
MED [37]: 100 mg/kg
minimal effective dose [38]: > 30 mg/kg
minimal effective dose [39]: 100 mg/kg
minimal effective dose [40]: 100 mg/kg
Activity [41]: Non-toxic
